# From patent US8642608B2, “Quinazoline derivatives as VEGF inhibitors” (AstraZeneca AB, priority 1999, dated 2014)
# Assays:
# [1] = tested on: femoral epiphyseal growth plates of the distal femur and proximal tibia; assay: 14 day toxicity test in rat (d); assay type: in vivo, Alderley Park rats (Wistar derived); conditions: 100 mg/kg/day, oral gavage, 14 days, female rats; p<0.001 (one-tailed Students' t-test)
# Description: The toxicological profile of compounds of the present invention may be assessed, for example using a rat 14 day study as described hereinafter.
# (d) 14 Day Toxicity Test in Rat
# This test measures the activity of compounds in increasing the zone of hypertrophy in the femoral epiphyseal growth plates of the distal femur and proximal tibia, and allows assessment of histopathological changes in other tissues.
# A. Preclinical Safety Evaluation of rhuMAbVEGF, an antiangiogenic humanised monoclonal antibody, Tox. Path., 27: 78-86, 1999).
# Compounds were initially formulated by suspension in a 1% (v/v) solution of polyoxyethylene (20) sorbitan mono-oleate in deionised water, by ball-milling at 4° C. overnight (at least 15 hours). Compounds were re-suspended by agitation immediately prior to dosing. […] The femoral epiphyseal growth plate areas of the distal femur and proximal tibia were measured in sections of femur and tibia using morphometric image analysis. The increase in the zone of hypertrophy was determined by comparison of the mean epiphyseal growth plate area of the control group versus the treatment group, and statistical significance determined using a one-tailed Students' t-test. […]
# [2] = tested on: EGF-stimulated human umbilical vein endothelial cells (HUVEC); assay: In vitro HUVEC proliferation assay (b), EGF-stimulated; assay type: cell-based; conditions: 96 h, test (b), EGF 3 ng/ml, 4 days, tritiated-thymidine incorporation
# Method: (§1) (b) In Vitro HUVEC Proliferation Assay
# (§2) HUVEC cells were isolated in MCDB 131 (Gibco BRL)+7.5% v/v foetal calf serum (FCS) and were plated out (at passage 2 to 8), in MCDB 131+2% v/v FCS+3 μg/ml heparin+1 μg/ml hydrocortisone, at a concentration of 1000 cells/well in 96 well plates. After a minimum of 4 hours they were dosed with the appropriate growth factor (i.e. VEGF 3 ng/ml, EGF 3 ng/ml or b-FGF 0.3 ng/ml) and compound. The cultures were then incubated for 4 days at 37° C. with 7.5% carbon dioxide. On day 4 the cultures were pulsed with 1 μCi/well of tritiated-thymidine (Amersham product TRA 61) and incubated for 4 hours. The cells were harvested using a 96-well plate harvester (Tomtek) and then assayed for incorporation of tritium with a Beta plate counter. Incorporation of radioactivity into cells, expressed as cpm, was used to measure inhibition of growth factor-stimulated cell proliferation by compounds.
# [3] = tested on: CaLu-6 tumour xenografts; assay: In vivo solid tumour disease model (c); parameters: species or system female athymic Swiss nu/nu mice; conditions: 50 mg/kg, orally once daily, CaLu-6 xenografts in mice; p<0.001 (Mann-Whitney Rank Sum Test)
# Method: (c) In Vivo Solid Tumour Disease Model
# This test measures the capacity of compounds to inhibit solid tumour growth.
# CaLu-6 tumour xenografts were established in the flank of female athymic Swiss nu/nu mice, by subcutaneous injection of 1×10^6 CaLu-6 cells/mouse in 100 μl of a 50% (v/v) solution of Matrigel in serum free culture medium. […] Tumours were measured using vernier calipers and volumes were calculated as: (l×w)×√(1×w)×(π/6), where 1 is the longest diameter and w the diameter perpendicular to the longest diameter. Test compounds were administered orally once daily for a minimum of 21 days, and control animals received compound diluent. Tumours were measured twice weekly. The level of growth inhibition was calculated by comparison of the mean tumour volume of the control group versus the treatment group, and statistical significance determined using a Students' t-test and/or a Mann-Whitney Rank Sum Test. The inhibitory effect of compound treatment was considered significant when p<0.05.
# [4] = tested on: human umbilical vein endothelial cells (HUVEC), basal; assay: In vitro HUVEC proliferation assay (b), basal; assay type: cell-based; conditions: test (b)
# [5] = tested on: VEGF-stimulated human umbilical vein endothelial cells (HUVEC); assay: In vitro HUVEC proliferation assay (b), VEGF-stimulated; assay type: cell-based; conditions: 96 h, test (b), VEGF 3 ng/ml, 4 days, tritiated-thymidine incorporation
# Method: as §1, §2
smiles,measurement,setting,value
"COc1cc2c(Nc3ccc(Br)cc3F)ncnc2cc1OCC1CCN(C)CC1 [Example 2, 4-(4-bromo-2-fluoroanilino)-6-methoxy-7-(1-methylpiperidin-4-ylmethoxy)quinazoline]",increase in epiphyseal growth plate hypertrophy,[1],75%
same,IC50,[2],170 nM
same,inhibition of tumour growth,[3],78%
same,IC50,[4],> 3000 nM
same,IC50,[5],60 nM
